Experiments:
[1] = system: human non-small cell lung cancer cell line (A549); test: Anti-tumor effect on subcutaneous transplant model of A549; format: in vivo, nude mouse; settings: 50 or 200 mg/kg orally twice a day for 7 days
Method: (§1) Human non-small-cell lung cancer cell line PC9 (obtained from Immuno-Biological laboratories Co., Ltd.), human non-small-cell lung cancer cell line A549 (obtained from Dainippon Pharmaceutical), human colon cancer cell line WiDr (obtained from Dainippon Pharmaceutical) and human colon cancer cell line HCT116 (obtained from ATCC) were cultured in RPMI1640 (containing 10% FBS) in a 5% carbon dioxide incubator at 37° C. to about 80% confluence, and the cells were collected with trypsin-EDTA. Using a phosphate buffer for PC9, WiDr and HCT116 and a 50% matrigel-containing phosphate buffer for A549, 5×10^7 cells/mL suspensions were prepared, respectively. Then, 0.1 mL each of the resulting cell suspensions was subcutaneously transplanted to the side of a nude mouse.
(§2) For PC9, 8 days after the transplantation, E7820 was orally administered for 50 mg/kg, 100 mg/kg or 200 mg/kg twice a day for 14 days. For A549, 24 days after the transplantation, E7820 was orally administered for 50 mg/kg or 200 mg/kg twice a day for 7 days. For WiDr, 11 days after the transplantation, E7820 was orally administered for 50 mg/kg, 100 mg/kg or 200 mg/kg twice a day for 14 days. […]
(§3) The major and minor axes of tumors were measured with Digimatic caliper (Mitsutoyo), and tumor volumes and relative tumor volumes were calculated according to the following formulae. […]

[2] = system: cancer cell line resistant to E7070; settings: WO2006/030941 and WO2006/030947; cited from earlier work
[3] = system: human colon cancer cell line (WiDr); test: Anti-tumor effect on subcutaneous transplant model of WiDr; format: in vivo, nude mouse; settings: WiDr subcutaneous transplant, 50, 100 or 200 mg/kg orally twice a day for 14 days
Method: as §1, §2, §3

[4] = system: human non-small cell lung cancer cell line (PC9); test: Anti-tumor effect on subcutaneous transplant model of PC9; format: in vivo, nude mouse; settings: PC9 subcutaneous transplant, 50, 100 or 200 mg/kg orally twice a day for 14 days
Method: as §1, §2, §3

EGFR1 [5] = test: EGFR1 expression level in cultured PC9 (flow cytometry); format: cell-based, human; settings: for EGFR1 expression level (% of control) PC9: two days of culture
Method: (§4) PC9 or A549 was suspended in RPMI1640 (containing 10% FBS) to 1×10^5 cells/ml. Then, 1 ml each of these suspensions was placed into each well of a 6-well plate and cultured in a 5% carbon dioxide incubator at 37° C. On the following day, 1 ml each of E7820 culture dilutions at respective concentrations (0-20 μM) was added to the cells in each well for further culture. After two days of culture, the cells were collected with trypsin-EDTA according to a routine procedure, which were suspended in PBS containing 0.5% BSA. Subsequently, an anti-EGFR1 antibody (BD Biosciences) was added to these suspensions and incubated at 4° C. for 30 minutes. Centrifugation and washing with PBS were carried out according to routine procedures to remove an excessive amount of the antibody. Then, an RPE-labeled anti-mouse IgG antibody was added to these suspensions and incubated at 4° C. for 30 minutes. Centrifugation and washing with PBS were carried out according to routine procedures to remove an excessive amount of the antibody. Finally, the EGFR1 expression level in PC9 and A549 were determined with FACSCalibur (Japan Becton, Dickinson and Company).

EGFR1 [6] = test: EGFR1 expression level in PC9 subcutaneous transplant model (immunohistochemical staining); format: in vivo; settings: PC9 tumors in nude mice, 25, 50, 100 or 200 mg/kg orally twice a day for 7 days, versus unadministered group
Method: PC9 was cultured in RPMI1640 (containing 10% FBS) in a 5% carbon dioxide incubator at 37° C. The cultured human tumor cells (PC9) (8×10^6 cells/mouse) were subcutaneously transplanted into nude mice (KSN mice from SLC). Once proliferation of the tumors transplanted into the mice was observed, E7820 was orally administered to the mice for 0 mg/kg (unadministered), 25 mg/kg, 50 mg/kg, 100 mg/kg or 200 mg/kg twice a day for 7 days. Following 7 days of administration, tumor tissues were removed from the mice, fixed with formalin and embedded in paraffin. Subsequently, the paraffin-embedded tumor tissues were sliced into a thickness of 6 μm, placed on glass slides and deparaffinized with xylene/ethanol. Then, these sections were treated with […] (Roche), and subjected to immunostaining according to the protocol of Simple Stain kit: mouse MAX-PO (M) (NICHIREI) using an anti-EGFR antibody (DakoCytomation). Referring to FIG. 5, (a) to (f) show stain with control IgG (negative control), E7820-unadministered group, E7820-administered group (25 mg/kg), E7820-administered group (50 mg/kg), E7820-administered group (100 mg/kg) and E7820-administered group (200 mg/kg), respectively. Each panel was enlarged twenty times. […] This proves that E7820 also exerts an anti-tumor effect at tissue level by decreasing the EGFR1 expression level. […]

EGFR1 [7] = test: EGFR1 expression level in cultured A549 (flow cytometry); format: cell-based, human; settings: for EGFR1 expression level (% of control) A549: two days of culture, flow cytometry
Method: as §4

Cc1ccc(NS(=O)(=O)c2cccc(C#N)c2)c2[nH]cc(C#N)c12 [E7820, N-(3-cyano-4-methyl-1H-indole-7-yl)-3-cyanobenzenesulfonamide]
Anti-tumor effect (relative tumor volume) [1]: showed anti-tumor effects
Cross-resistance of E7070-resistant cancer cell line (antiproliferative activity) [2]: cross-resistance
Anti-tumor effect (relative tumor volume) [3]: showed anti-tumor effects
Anti-tumor effect (relative tumor volume) [4]: stronger anti-tumor effects
EGFR1 expression level (% of control) PC9 (EGFR1 [5]; PC9, E7820 0.01 μM): 95 % of control
EGFR1 expression level (% of control) PC9 (EGFR1 [5]; PC9, E7820 0.03 μM): 91 % of control
EGFR1 expression level (% of control) PC9 (EGFR1 [5]; PC9, E7820 0.1 μM): 80 % of control
EGFR1 expression level (% of control) PC9 (EGFR1 [5]; PC9, E7820 0.3 μM): 65 % of control
EGFR1 expression level (% of control) PC9 (EGFR1 [5]; PC9, E7820 1 μM): 49 % of control
EGFR1 expression level (% of control) PC9 (EGFR1 [5]; PC9, E7820 3 μM): 44 % of control
EGFR1 expression level (% of control) PC9 (EGFR1 [5]; PC9, E7820 10 μM): 37 % of control
Effect on EGFR1 expression level (in words) (EGFR1 [5]; cultured PC9, dose-dependent): greatly decreased the EGFR1 expression level
Effect on EGFR1 expression level (immunohistochemical staining, in words) (EGFR1 [6]): decrease in the EGFR1 expression level was significant
EGFR1 expression level (% of control) A549 (EGFR1 [7]; A549, E7820 0.01 μM): 93 % of control
EGFR1 expression level (% of control) A549 (EGFR1 [7]; A549, E7820 0.03 μM): 97 % of control
EGFR1 expression level (% of control) A549 (EGFR1 [7]; A549, E7820 0.1 μM): 95 % of control
EGFR1 expression level (% of control) A549 (EGFR1 [7]; A549, E7820 0.3 μM): 91 % of control
EGFR1 expression level (% of control) A549 (EGFR1 [7]; A549, E7820 1 μM): 80 % of control
EGFR1 expression level (% of control) A549 (EGFR1 [7]; A549, E7820 3 μM): 64 % of control
EGFR1 expression level (% of control) A549 (EGFR1 [7]; A549, E7820 10 μM): 73 % of control
Effect on EGFR1 expression level (in words) (EGFR1 [7]; cultured A549, flow cytometry): slightly decreased the EGFR1 expression level
